Assay: Solubilities of sesamin, episesamin and their mixture in various oils or fats
Type: physicochemical
Protocol: To prepare the lignan-class compound containing emulsion of the present invention, liquid in which a lignan-class compound is dissolved (oil phase) is first prepared. As already mentioned, a sesame oil or the like may be used as the liquid, alternatively, the liquid may be prepared by adding a powdered form of lignan-class compound to a solvent oil or fat, mixing the mixture, and fully dissolving the powdered form to the solvent while agitating the mixture while heating. The blending ratio between the lignan-class compound and the fat or oil varies with the type of the lignan-class compound and the fat, or oil that serves as a solvent and it can be set appropriately in consideration of this fact. The assignees of the subject application have discovered that two lignan-class compounds, sesamin and episesamin, and a mixture thereof had different solubilities in different fats or oils (see Table 1).

SMILES	Solubilities (%) in DG	Solubilities (%) in MCT-1	Solubilities (%) in MCT-2	Solubilities (%) in Olive oil	Solubilities (%) in Wheat germ oil
c1cc2c(cc1[C@H]1OC[C@H]3[C@@H]1CO[C@@H]3c1ccc3c(c1)OCO3)OCO2 [Sesamin, sesamin]	1.25%	4.0%	2.0%	0.75%	0.75%
c1cc2c(cc1[C@H]1OC[C@H]3[C@@H]1CO[C@@H]3c1ccc3c(c1)OCO3)OCO2 [Episesamin, episesamin]	1.0%	2.5%	2.5%	0.5%	0.75%
